We go through 55 compounds from patent US20220306630A1, “AGONISTS OF ROR GAMMAt” (BRISTOL-MYERS SQUIBB COMPANY, priority 2019, published 2022).

For the assay, the target named is T1, RORgT (Homo sapiens, UniProt P51449).
T1 construct: Gal4 (fusion partner); expressed in transfected cells; host or cells: engineered Jurkat cells (Jurkat pEx/Gal/hRORγ CLBD/HYG pG5luc/blast)
T1 sequence (P51449 267-516): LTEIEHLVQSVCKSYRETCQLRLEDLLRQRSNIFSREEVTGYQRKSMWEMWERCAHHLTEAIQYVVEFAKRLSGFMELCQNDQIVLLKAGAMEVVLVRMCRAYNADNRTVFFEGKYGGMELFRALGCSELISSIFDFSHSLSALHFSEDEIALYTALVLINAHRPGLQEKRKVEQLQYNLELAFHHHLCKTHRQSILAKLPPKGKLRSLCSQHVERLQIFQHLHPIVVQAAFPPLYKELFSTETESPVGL
Briefly: RORgT Gal4 Luciferase Reporter Gene Assay. Format: cell-based. Particulars: engineered Jurkat cells overexpressing RORgT (LBD or full length) with Gal4 Luc reporter; 18 hours at 37° C.; 40 μM to 0.67 nM; read-out: RORg_GAL4 EC50. How it is done:
The compound and the cells were incubated for 18 hours at 37° C. in a cell culture incubator. Cells were then lysed with 15 uL of Steady-Glo Luciferase Assay reagent (Promega EZ550), followed by centrifuging the assay plates at 1500 RPM for 1 minute. Subsequently, the plates were read on the Envision (PerkinElmer). The inhibition of constitutive activity of RORgT achieved by graded concentrations of compound was calculated as a percentage of the luminescence signal window reduction over a control compound.
Background: In a reporter assay the amount or activity of a reporter protein is the signal.
With `COc1ccc(Oc2c(Cl)cc(NC(=O)C[C@H]3CCCN(S(C)(=O)=O)C3)cc2Cl)cc1C(C)C` [Example 44, (R)—N-(3,5-dichloro-4-(3-isopropyl-4-methoxyphenoxy)phenyl)-2-(1-(methylsulfonyl)piperidin-3-yl)acetamide], the EC50 (commonly the midpoint of the concentration-response curve) amounted to 120 nM.

In the case of `COc1ccc(Oc2c(Cl)ccc(C(=O)NCC3CN(S(C)(=O)=O)C3)c2Cl)cc1C(C)C` [Example 91], the 50% effective concentration (EC50) came to 88 nM.

Take `COc1ncc(Oc2c(Cl)ccc(C(=O)N3CCC4(CC3)CN(S(C)(=O)=O)C4)c2Cl)cc1C(C)(C)F` [Example 30, (2,4-dichloro-3-((5-(2-fluoropropan-2-yl)-6-methoxypyridin-3-yl)oxy)phenyl)(2-(methylsulfonyl)-2,7-diazaspiro[3.5]nonan-7-yl)methanone]: the EC50 is 216 nM.

With `COc1ccc(Oc2c(Cl)cc(NC(=O)[C@H]3CC[C@@H](C(=O)OC)CC3)cc2Cl)cc1C(C)C` [Example 339], the EC50 is 983 nM. Consider `CC(C)c1cc(F)cc(Oc2c(Cl)ccc(CNC(=O)C3CCN(S(C)(=O)=O)CC3)c2Cl)c1` [Example 148], for which the EC50 amounted to 4 nM. Next, `CC(C)c1cc(F)cc(Oc2c(Cl)ccc(C(=O)NCc3ccc(S(C)(=O)=O)cc3)c2Cl)c1` [Example 122]: 3.6 nM; `CC(C)c1cc(F)cc(Oc2c(Cl)cc(NC(=O)CN3CCC(S(C)(=O)=O)CC3)cc2Cl)c1` [Example 331]: 116 nM; `CC(C)c1cc(Oc2c(Cl)ccc(C(=O)NCC3CCN(S(C)(=O)=O)CC3)c2Cl)ccc1F` [Example 113]: 27 nM.

Take `COc1ccc(Oc2c(Cl)cc(NC(=O)C[C@H]3CCCN(S(=O)(=O)C(C)C)C3)cc2Cl)cc1C(C)C` [Example 321]: the EC50 came out at 149 nM.

Regarding `COc1ccc(Oc2c(Cl)ccc(C(=O)N3CCC(c4ccccc4)CC3)c2Cl)cc1C(C)C` [Example 176], the EC50 came to 83 nM. Regarding `COc1ccc(Oc2c(Cl)cc(NC(=O)c3cccc(S(C)(=O)=O)c3)cc2Cl)cc1C(C)C` [Example 289], the EC50 is 1480 nM.

Take `COc1ccc(Oc2c(Cl)cc(NC(=O)C3CCCCC3)cc2Cl)cc1C(C)C` [Example 287]: the EC50 worked out at 132 nM. The figure for `COCCN(C)C(=O)c1ccc(Cl)c(Oc2ccc(OC)c(C(C)C)c2)c1Cl` [Example 182] is 355 nM; for `C=C(C)c1cc(Oc2c(Cl)cc(NC(=O)CC3CCN(S(C)(=O)=O)CC3)cc2Cl)cnc1OC` [Example 73] it is 18 nM.

For the compound `CC(C)c1cc(F)cc(Oc2c(Cl)ccc(C(=O)NCc3cccc(S(C)(=O)=O)c3)c2Cl)c1` [Example 139], the EC50 was found to be 187 nM.

Regarding `COc1ccc(Oc2c(Cl)cc(NC(=O)Cc3ccc(N)nc3)cc2Cl)cc1C(C)C` [Example 2, 2-(6-aminopyridin-3-yl)-N-(3,5-dichloro-4-(3-isopropyl-4-methoxyphenoxy)phenyl)acetamide], the EC50 was found to be 152 nM. As to `COc1ccc(Oc2c(Cl)ccc(C(=O)N3CCc4ccccc4C3)c2Cl)cc1C(C)C` [Example 179], the EC50 is 1130 nM.

In the case of `CC(C)c1cc(F)cc(Oc2c(Cl)ccc(CNC(=O)C3CCN(S(N)(=O)=O)CC3)c2Cl)c1` [Example 151], the EC50 was 9.9 nM. As to `CCS(=O)(=O)N[C@@H]1CCCN(CC(=O)Nc2cc(Cl)c(Oc3ccc(OC)c(C(C)C)c3)c(Cl)c2)C1` [Example 167], the EC50 is 245 nM. Regarding `COc1ccc(Oc2c(Cl)cc3[nH]c(-c4ccccc4)nc3c2Cl)cc1C(C)C` [Example 35, 4,6-dichloro-5-(3-isopropyl-4-methoxyphenoxy)-2-phenyl-1H-benzo[d]imidazole], the EC50 was 2050 nM. `CC(C)c1cc(F)cc(Oc2c(Cl)cc(NC(=O)CC3CC(=O)NC(=O)C3)cc2Cl)c1` [Example 330]: the EC50 is 237 nM.

Consider `COc1ccc(Oc2c(Cl)ccc(C(=O)N3CCOCC3)c2Cl)cc1C(C)C` [Example 211], for which the EC50 is 46 nM. On to `COc1ccc(Oc2c(Cl)cc(NC(=O)C[C@H]3CCCN(S(=O)(=O)C4CC4)C3)cc2Cl)cc1C(C)C` [Example 318], for which the EC50 was 76 nM.

`CC(C)c1cc(F)cc(Oc2c(Cl)ccc(NC(=O)CC3CCN(S(C)(=O)=O)CC3)c2Cl)c1` [Example 130]: the EC50 was 5.5 nM. As for `COc1ccc(Oc2c(Cl)ccc(C(=O)NCC#N)c2Cl)cc1C(C)C` [Example 201], the EC50 was 511 nM. With `COc1ccc(Oc2c(Cl)ccc(C(=O)N3CCC(O)(c4ccccc4)CC3)c2Cl)cc1C(C)C` [Example 180], the EC50 amounted to 325 nM. Take `COc1ccc(Oc2c(Cl)cc(NC(=O)Cc3cccc(S(C)(=O)=O)c3)cc2Cl)cc1C(C)C` [Example 231]: the EC50 came to 26 nM. As to `CC(C)c1cc(F)cc(Oc2c(Cl)cc(NC(=O)CN3CCN(S(C)(=O)=O)CC3)cc2Cl)c1` [Example 332], the EC50 came out at 7.6 nM. Regarding `CC(C)c1cc(F)cc(Oc2c(Cl)cc(NC(=O)NC3CCCN(S(C)(=O)=O)C3)cc2Cl)c1` (stereo not shown) [Example 26, 1-(3,5-dichloro-4-(3-fluoro-5-isopropylphenoxy)phenyl)-3-(1-(methylsulfonyl)piperidin-3-yl)urea], the EC50 amounted to 322 nM. The figure for `COc1ccc(Oc2c(Cl)ccc(C(=O)NC(C)c3ccc(S(C)(=O)=O)cc3)c2Cl)cc1C(C)C` (stereo not shown) [Example 105] is 30 nM. Consider `CCOc1ccc(Oc2c(Cl)cc(NC(=O)Cc3cccnc3)cc2Cl)cc1C(C)C` [Example 50, N-(3,5-dichloro-4-(4-ethoxy-3-isopropylphenoxy)phenyl)-2-(pyridin-3-yl)acetamide], for which the EC50 is 75 nM. With `COc1ncc(Oc2c(Cl)ccc(CNC(=O)c3ccc(S(C)(=O)=O)cc3)c2Cl)cc1C(C)C` [Example 145], the EC50 turned out to be 8.5 nM. Take `COc1ccc(Oc2c(Cl)cc(C(=O)NCc3ccc(S(N)(=O)=O)cc3)cc2Cl)cc1C(C)C` [Example 156]: the EC50 was 1930 nM. As to `COc1ccc(Oc2c(Cl)cc(NC(=O)CN3CC[C@H](NS(C)(=O)=O)C3)cc2Cl)cc1C(C)C` [Example 165], the EC50 stood at 182 nM. In the case of `COc1ccc(Oc2c(Cl)cc(NC(=O)CCC(C)C)cc2Cl)cc1C(C)C` [Example 290], the 50% effective concentration (EC50) came to 524 nM. As for `COc1ccc(Oc2c(Cl)ccc(CNC(=O)c3ccc(S(C)(=O)=O)cc3Cl)c2Cl)cc1C(C)C` [Example 62], the EC50 came out at 96 nM. Next, `CC(=O)NC[C@H]1CN(c2cc(Cl)c(Oc3cc(F)cc(C(C)C)c3)c(Cl)c2)C(=O)O1` [Example 272]: 260 nM; `COc1ccc(Oc2c(Cl)cc(NC(=O)CC3CCCNC3)cc2Cl)cc1C(C)C` (racemic) [Example 32, N-(3,5-dichloro-4-(3-isopropyl-4-methoxyphenoxy)phenyl)-2-(piperidin-3-yl)acetamide]: 296 nM; `COc1ccc(Oc2c(Cl)ccc(C(=O)NCCNC(C)=O)c2Cl)cc1C(C)C` [Example 221]: 560 nM. As to `COc1ccc(Oc2c(Cl)cc(N3CC(CNS(N)(=O)=O)OC3=O)cc2Cl)cc1C(C)C` (stereo not shown) [Example 12, N-[(3-{3,5-dichloro-4-[4-methoxy-3-(propan-2-yl)phenoxy]phenyl}-2-oxo-1,3-oxazolidin-5-yl)methyl]aminosulfonamide], the EC50 worked out at 1100 nM. As for `COc1ccc(Oc2c(Cl)cc3[nH]c(Cc4cccnc4)nc3c2Cl)cc1C(C)C` [Example 309], the EC50 was determined as 409 nM. For the compound `COc1ncc(Oc2c(Cl)ccc(C(=O)NCC3CCN(S(C)(=O)=O)CC3)c2Cl)cc1C(C)(C)F` [Example 153], the EC50 came to 195 nM.

As to `COc1ccc(Oc2c(Cl)ccc(C(=O)N(C)CC3CCN(S(N)(=O)=O)CC3)c2Cl)cc1C(C)C` [Example 103], the EC50 amounted to 50 nM. The figure for `COc1ccc(Oc2c(Cl)ccc(C(=O)NCc3ccc(S(N)(=O)=O)nc3)c2Cl)cc1C(C)C` [Example 101] is 14 nM. In the case of `COc1ncc(Oc2c(Cl)ccc(C(=O)NCc3cccc(S(C)(=O)=O)c3)c2Cl)cc1C(C)C` [Example 138], the EC50 amounted to 225 nM. `NS(=O)(=O)c1ccc(CNC(=O)c2ccc(Cl)c(Oc3cc(F)cc(CCC(F)(F)F)c3)c2Cl)cc1` [Example 326]: the EC50 was 10 nM. Next, `COc1ccc(Oc2c(Cl)ccc(CNC(=O)C3CCN(S(N)(=O)=O)CC3)c2Cl)cc1C(C)C` [Example 63]: 31 nM; `COc1ccc(Oc2c(Cl)cc(NC(=O)NCCS(N)(=O)=O)cc2Cl)cc1C(C)C` [Example 234]: 635 nM; `COc1ccc(Oc2c(Cl)ccc(CNC(=O)C3CCN(S(=O)(=O)C(C)C)CC3)c2Cl)cc1C(C)C` [Example 95]: 24 nM. On to `COc1ccc(Oc2c(Cl)cc(NC(=O)c3cnccn3)cc2Cl)cc1C(C)C` [Example 294], for which the EC50 worked out at 4520 nM.

`COc1ccc(Oc2c(Cl)ccc(C(=O)N3CCC4(CC3)CN(C=O)C4)c2Cl)cc1C(C)C` [Example 341]: the EC50 stood at 75 nM. For `COc1ccc(Oc2c(Cl)ccc(C(=O)N3CCN(S(C)(=O)=O)CC3)c2Cl)cc1C(C)C` [Example 65], the EC50 was found to be 69 nM. In the case of `COc1ncc(Oc2c(Cl)cc(NC(=O)CC3CCN(S(=O)(=O)CCl)CC3)cc2Cl)cc1C(C)C` [Example 127], the EC50 worked out at 35 nM. As to `COc1ccc(Oc2c(Cl)cc(NC(=O)CN3CC[C@@H](NS(C)(=O)=O)C3)cc2Cl)cc1C(C)C` [Example 160], the EC50 worked out at 325 nM. Turning to `COc1ccc(Oc2c(Cl)ccc(NC(=O)CC3CN(S(C)(=O)=O)C3)c2Cl)cc1C(C)C` [Example 58], the EC50 stood at 383 nM.
